Experimental data from patent US20040228905A1, “Anti-inflammatory and antimicrobial uses for bioactive glass compositions” (priority 1996, published 2004).

Test system: S. sanguis
Assay: Anti-bacterial activity of bioactive glass supernates, survivors enumerated by viable counting
Type: cell-based
Settings: non-bioactive glass derived alkaline solution, pH 9.8
Procedure: Nutrient broth (10 ml) was added to 5 grams of particulate bioactive glass with a pore size between 355 and 500 μm, 5 grams of glass beads (not bioactive glass) with a particle size between 455 and 600 μm, and no glass beads. The resulting solutions were incubated with rotation for 1 h at 37 C. 950 μl of each supernatant was removed and added to 50 μl of an overnight culture of S. sanguis, and incubated for 1 h at 37 C. Survivors were enumerated by viable counting.

**Q.** For [Na+].[OH-] [NaOH], which kills is on record?
**A.** 40%
